Results on three substances are retold here after patent US9056886B2, “Guanosine-rich modified oligonucleotides and antiproliferative activity thereof” (APTABIO THERAPEUTICS INC., priority 2009, dated 2015).

pIC50: −log10 of the molar value. [5FU] = 5-fluoro-uracil base (5-fluoro-2'-deoxyuridine)

The subject of series [1] is PC-3 cell line (prostate cancer cell). The series can be described thus: Cell apoptosis (XTT method) in PC-3 cells. Format: cell-based. The conditions noted are these: for pIC50: PC3 (Prostate Cancer Cells), cultured six days, XTT. On the procedure: (§1) Each oligonucleotide was diluted in 10 mM Tris-HCl (pH 7.4) to a final concentration of 100 μM. The diluted solution was placed at 94° C. for 5 minutes and then quickly placed them on ice and left therein for 5 minutes. The resultant was added with 2M KCl to a final concentration of 50 mM, left at 60° C. for 3 hours and then slowly cooled down to room temperature.
(§2) One day before the experiment, 190 μL of culture, wherein PC-3 cell line(prostate cancer cell) was suspended at a concentration of 10^3-10^4/mL, was inoculated respectively into each well of a 96 well plate. The next day, 10 μL of the oligonucleotide solution prepared in Example 1 was added and cultured for six days. Six days after the inoculation, cell apoptosis rate measured by means of XTT method [JBC 1999, 26369].
(In general: Tetrazolium dyes change colour on reduction, which living cells bring about.)

The test system of series [2] is MCF7-DX (Breast Cancer Cells), a drug-resistance cell line. Nature of the series: Cell apoptosis (XTT method) in MCF7-DX cells. In kind it is cell-based. As to the method: [Worded in the source for another cell line; this cell line is reported under the same test.] as §1, §2
(§3) As a result, it was confirmed that the cell apoptosis rate of APT-2001, APT-2002 and APT-2003 (the novel modified oligonucleotides of the present invention), was 3-10 times higher than those of APT-4001 (positive control) and APT-4002 (negative control) as measured in terms of IC50 or IC90 (FIG. 2). […] In addition, the cell apoptotic activity of the oligonucleotides, prepared according to the present invention over the K562 CML (chronic myeloid leukemia), MV-4-11 AML (acute leukemia) cells, were also verified.

Series [3] has as its system HCT116 (Rectal Cancer Cells). The series can be described thus: Cell apoptosis (XTT method) in HCT116 cells. In kind it is cell-based. As to the method: [Worded in the source for another cell line; this cell line is reported under the same test.] as §1, §2, §3
For series [4], the system named is A549 (Non-small Cell Carcinoma Cells). The series can be described thus: Cell apoptosis (XTT method) in A549 cells. Format: cell-based.
The test system of series [5] is A498 (Kidney Cancer Cells). The series can be described thus: Cell apoptosis (XTT method) in A498 cells. Format: cell-based.
The subject of series [6] is MCF7 (Breast Cancer Cells). The series can be described thus: Cell apoptosis (XTT method) in MCF7 cells. In kind it is cell-based. On the procedure:
[Worded in the source for another cell line; this cell line is reported under the same test.] as §1, §2, §3

The subject of series [7] is mice. Nature of the series: Toxicity test in mice. The note with it: 1 g/kg administered, 10 mice/group, observed for the next 7 days. Format: in vivo. On the procedure:
Toxicity test was performed on the active ingredient of the present invention as follows.
Each of APT-2001, APT-2002 and APT-2003 was dissolved in dimethylsulfoxide (DMSO), diluted with water and then administered to mice (10 mice/group) in the amount of 1 g/kg.

For the substance “APT-4002: Negative control, TTTCCTCCTCCTCCTTCTCCTCCTCCTCC (SEQ. ID. NO. 49); thymidine, 2′-deoxycytidine (DNA, backbone not given here) [reference compound]”, the pIC50 in series [1], in series [2], in series [3], in series [4] and in series [5] was under 4.30 in each case.
Regarding “APT-2002: NNNGGTGGTGGTGGTTGTGGTGGTGGTGG (SEQ. ID. NO. 2); N=5-F-deoxyuridine, G=2-deoxy-guanosine, H=thymidine (DNA UUUGGTGGTGGTGGTTGTGGTGGTGGTGG; DNA, [5FU] at 1, 2, 3, backbone not given here)”, the negative-log IC50 (pIC50) in series [1] was 5.59; in series [2] it was 6.22; in series [6] it was 5.05; in series [3] it was 5.68; in series [4], 5.28; in series [5], over 7.00. In addition, in series [1] (even at a smaller amount than APT-4001, FIG. 3), the “cell apoptotic activity compared to APT-4001 (positive control)” value was “superior cell apoptotic activity”. Further, in series [7], the survival of mice result is “all mice survived”.
Regarding “APT-2059: GGTGGTGGTNNTGGTGGTGG (SEQ. ID. NO. 23); N=2′,2′-difluoro deoxycytidine, G=2-deoxy-guanosine, H=thymidine (2',2'-difluoro deoxycytidine modified nucleosides, chemistry not fully specified)”, the results for the pIC50 in series [1] and in series [2] were 7.82 and 8.40, respectively.

What is called pIC50 is the negative decadic logarithm of the IC50, by convention in mol/L.
